# Where “and” joins values, the source holds several entries; their conditions need not be identical. Equal entries are not always repeated.
# Assay: Phase 1 single-ascending dose (Part 1): safety and tolerability in healthy adults
# Type: in vivo, human
# Experimental: This ongoing trial is a Phase 1 randomized, double-blind, placebo-controlled study in male and female healthy adult volunteers aged 18-55 years. All volunteers provided written, informed consent.
# All volunteers were followed up for 4 weeks and safety and tolerability were continuously assessed throughout the study. All adverse events (AEs) were recorded from the time of consent to the completion visit and were graded using the DAIDS toxicity grading scale. Volunteers also underwent physical examinations, electrocardiograms, vital sign checks and clinical laboratory parameters (chemistry, haematology, urinalysis).
smiles,measurement,setting,value
CCCCOc1nc(N)c2[nH]cc(Cc3ccc(CN4CCCC4)cc3)c2n1 [Compound 4],subjects with at least one SAE,single dose 1.25 mg fasted,0 n (%)
same,subjects with at least one fatal AE,single dose 1.25 mg fasted,0 n (%)
same,subjects with at least one grade 1 AE,single dose 1.25 mg fasted,7 (87.5%) n (%)
same,subjects with at least one grade 2 AE,single dose 1.25 mg fasted,1 (12.5%) n (%)
same,subjects with at least one grade 3 or 4 AE,single dose 1.25 mg fasted,0 n (%)
same,subjects with fever and flu-like symptoms (flu-like AEs and lymphopenia),single dose 1.25 mg fasted,3 and 3/8
same,treatment-related AE: Any AE,single dose 1.25 mg fasted,6 (75.0%) n (%)
same,treatment-related AE: Chills,single dose 1.25 mg fasted,0 n (%)
same,treatment-related AE: Dizziness,single dose 1.25 mg fasted,0 n (%)
same,treatment-related AE: General disorders and administration site conditions,single dose 1.25 mg fasted,3 (37.5%) n (%)
same,treatment-related AE: Headache,single dose 1.25 mg fasted,4 (50.0%) n (%)
same,treatment-related AE: Hypertension,single dose 1.25 mg fasted,0 n (%)
same,treatment-related AE: Myalgia,single dose 1.25 mg fasted,3 (37.5%) n (%)
same,treatment-related AE: Nervous system disorders,single dose 1.25 mg fasted,4 (50.0%) n (%)
same,treatment-related AE: Oropharyngeal pain,single dose 1.25 mg fasted,2 (25.0%) n (%)
same,treatment-related AE: Pyrexia,single dose 1.25 mg fasted,3 (37.5%) n (%)
same,"treatment-related AE: Respiratory, thoracic and mediastinal disorders",single dose 1.25 mg fasted,2 (25.0%) n (%)
same,treatment-related AE: Vascular disorder,single dose 1.25 mg fasted,0 n (%)
same,vital signs: Respiratory rate (brpm) Grade 1,single dose 1.25 mg fasted,7 (87.5%) n (%)
same,vital signs: Respiratory rate (brpm) Grade 2,single dose 1.25 mg fasted,0 n (%)
same,vital signs: SaO2 (%) 90% to <95%,single dose 1.25 mg fasted,3 (37.5%) n (%)
same,vital signs: SaO2 (%) 95% to <98%,single dose 1.25 mg fasted,3 (37.5%) n (%)
same,vital signs: Standing DBP (mmHg) Grade 1,single dose 1.25 mg fasted,1 (12.5%) n (%)
same,vital signs: Standing DBP (mmHg) Grade 2,single dose 1.25 mg fasted,2 (25.0%) n (%)
same,vital signs: Standing DBP (mmHg) Grade 3,single dose 1.25 mg fasted,0 n (%)
same,vital signs: Standing DBP (mmHg) Low,single dose 1.25 mg fasted,0 n (%)
same,vital signs: Standing SBP (mmHg) Grade 1,single dose 1.25 mg fasted,1 (12.5%) n (%)
same,vital signs: Standing SBP (mmHg) Low,single dose 1.25 mg fasted,1 (12.5%) n (%)
same,vital signs: Standing pulse (bpm) High,single dose 1.25 mg fasted,1 (12.5%) n (%)
same,vital signs: Standing pulse (bpm) Low,single dose 1.25 mg fasted,0 n (%)
same,vital signs: Supine DBP (mmHg) Grade 1,single dose 1.25 mg fasted,1 (12.5%) n (%)
same,vital signs: Supine DBP (mmHg) Low,single dose 1.25 mg fasted,0 n (%)
same,vital signs: Supine SBP (mmHg) Grade 1,single dose 1.25 mg fasted,1 (12.5%) n (%)
same,vital signs: Supine SBP (mmHg) Grade 2,single dose 1.25 mg fasted,0 n (%)
same,vital signs: Supine SBP (mmHg) Low,single dose 1.25 mg fasted,1 (12.5%) n (%)
same,vital signs: Supine pulse (bpm) Low,single dose 1.25 mg fasted,0 n (%)
same,↑ AST Grade 3 (laboratory abnormality),single dose 1.25 mg fasted,0 n (%)
same,↑ Amylase Grade 2 (laboratory abnormality),single dose 1.25 mg fasted,0 n (%)
same,↑ Cholesterol Grade 2 (laboratory abnormality),single dose 1.25 mg fasted,1 (17) n (%)
same,↑ Creatine kinase Grade 2 (laboratory abnormality),single dose 1.25 mg fasted,0 n (%)
same,↑ Creatine kinase Grade 4 (laboratory abnormality),single dose 1.25 mg fasted,0 n (%)
same,↑ Glucose Grade 2 (laboratory abnormality),single dose 1.25 mg fasted,1 (13) n (%)
same,↑ LDL cholesterol Grade 2 (laboratory abnormality),single dose 1.25 mg fasted,0 n (%)
same,↑ LDL cholesterol Grade 3 (laboratory abnormality),single dose 1.25 mg fasted,1 (13) n (%)
same,↑ Lipase Grade 2 (laboratory abnormality),single dose 1.25 mg fasted,0 n (%)
same,↑ Pancreatic amylase Grade 2 (laboratory abnormality),single dose 1.25 mg fasted,0 n (%)
same,↑ Potassium Grade 2 (laboratory abnormality),single dose 1.25 mg fasted,0 n (%)
same,↑ Sodium Grade 2 (laboratory abnormality),single dose 1.25 mg fasted,1 (13) n (%)
same,↑ Triglycerides Grade 2 (laboratory abnormality),single dose 1.25 mg fasted,4 (50) n (%)
same,↑ Triglycerides Grade 3 (laboratory abnormality),single dose 1.25 mg fasted,0 n (%)
same,↓ Bicarbonate Grade 2 (laboratory abnormality),single dose 1.25 mg fasted,0 n (%)
same,↓ Lymphocytes Grade 2 (laboratory abnormality),single dose 1.25 mg fasted,1 (13) n (%)
same,↓ Lymphocytes Grade 4 (laboratory abnormality),single dose 1.25 mg fasted,0 n (%)
same,↓ Neutrophils Grade 2 (laboratory abnormality),single dose 1.25 mg fasted,0 n (%)
same,↓ Phosphate Grade 2 (laboratory abnormality),single dose 1.25 mg fasted,0 n (%)
same,Any AE (treatment-emergent),single dose 1.25 mg fed,6 (86) n (%)
same,Back pain Grade 1 (treatment-emergent AE),single dose 1.25 mg fed,0 n (%)
same,Chills Grade 1 (treatment-emergent AE),single dose 1.25 mg fed,0 n (%)
same,Contact dermatitis Grade 1 (treatment-emergent AE),single dose 1.25 mg fed,0 n (%)
same,Dizziness Grade 1 (treatment-emergent AE),single dose 1.25 mg fed,0 n (%)
same,ECG actual value: Heart rate (bpm) Low,single dose 1.25 mg fed,0 n (%)
same,ECG actual value: QRS (ms) High,single dose 1.25 mg fed,0 n (%)
same,ECG actual value: QTcB (ms) ]450; 480],single dose 1.25 mg fed,0 n (%)
same,ECG actual value: QTcF (ms) ]450; 480],single dose 1.25 mg fed,0 n (%)
same,ECG change from reference: QTcB (ms) [30; 60],single dose 1.25 mg fed,2 (28.6%) n (%)
same,ECG change from reference: QTcF (ms) [30; 60],single dose 1.25 mg fed,1 (14.3%) n (%)
same,Headache Grade 1 (treatment-emergent AE),single dose 1.25 mg fed,1 (14) n (%)
same,Headache Grade 2 (treatment-emergent AE),single dose 1.25 mg fed,0 n (%)
same,Hypertension Grade 1 (treatment-emergent AE),single dose 1.25 mg fed,0 n (%)
same,Hypertension Grade 2 (treatment-emergent AE),single dose 1.25 mg fed,0 n (%)
same,Myalgia Grade 1 (treatment-emergent AE),single dose 1.25 mg fed,0 n (%)
same,Oropharyngeal pain Grade 1 (treatment-emergent AE),single dose 1.25 mg fed,2 (29) n (%)
same,Pyrexia Grade 1 (treatment-emergent AE),single dose 1.25 mg fed,0 n (%)
same,Pyrexia Grade 2 (treatment-emergent AE),single dose 1.25 mg fed,0 n (%)
same,URTI Grade 1 (treatment-emergent AE),single dose 1.25 mg fed,1 (14) n (%)
same,"lab toxicity: Amylase (U/L), upwards, Grade 1",single dose 1.25 mg fed,1 (14.3%) n (%)
same,"lab toxicity: Amylase (U/L), upwards, Grade 2",single dose 1.25 mg fed,0 n (%)
same,"lab toxicity: Cholesterol (mmol/L), upwards, Grade 1",single dose 1.25 mg fed,0 n (%)
same,"lab toxicity: Cholesterol (mmol/L), upwards, Grade 2",single dose 1.25 mg fed,0 n (%)
same,"lab toxicity: Creatine kinase (U/L), upwards, Grade 1",single dose 1.25 mg fed,0 n (%)
same,"lab toxicity: Creatine kinase (U/L), upwards, Grade 2",single dose 1.25 mg fed,0 n (%)
same,"lab toxicity: Creatine kinase (U/L), upwards, Grade 4",single dose 1.25 mg fed,0 n (%)
same,"lab toxicity: Glucose (mmol/L), upwards, Grade 1",single dose 1.25 mg fed,2 (28.6%) n (%)
same,"lab toxicity: Glucose (mmol/L), upwards, Grade 2",single dose 1.25 mg fed,0 n (%)
same,"lab toxicity: LDL cholesterol (mmol/L, calculated), upwards, Grade 1",single dose 1.25 mg fed,1 (14.3%) n (%)
same,"lab toxicity: LDL cholesterol (mmol/L, calculated), upwards, Grade 2",single dose 1.25 mg fed,0 n (%)
same,"lab toxicity: LDL cholesterol (mmol/L, calculated), upwards, Grade 3",single dose 1.25 mg fed,0 n (%)
same,"lab toxicity: Lymphocytes (giga/L), downwards, Grade 2",single dose 1.25 mg fed,0 n (%)
same,"lab toxicity: Lymphocytes (giga/L), downwards, Grade 4",single dose 1.25 mg fed,0 n (%)
same,"lab toxicity: Neutrophils, segmented (giga/L), downwards, Grade 1",single dose 1.25 mg fed,0 n (%)
same,"lab toxicity: Neutrophils, segmented (giga/L), downwards, Grade 2",single dose 1.25 mg fed,0 n (%)
same,"lab toxicity: Platelets (giga/L), downwards, Grade 1",single dose 1.25 mg fed,0 n (%)
same,"lab toxicity: Sodium (mmol/L), upwards, Grade 1",single dose 1.25 mg fed,3 (42.9%) n (%)
same,"lab toxicity: Sodium (mmol/L), upwards, Grade 2",single dose 1.25 mg fed,0 n (%)
same,"lab toxicity: Triglycerides (mmol/L), upwards, Grade 1",single dose 1.25 mg fed,3 (42.9%) n (%)
same,"lab toxicity: Triglycerides (mmol/L), upwards, Grade 2",single dose 1.25 mg fed,1 (14.3%) n (%)
same,"lab toxicity: Triglycerides (mmol/L), upwards, Grade 3",single dose 1.25 mg fed,0 n (%)
same,"lab toxicity: Urate (μmol/L), upwards, Grade 1",single dose 1.25 mg fed,0 n (%)
same,subjects with at least one AE,single dose 1.25 mg fed,6 (85.7%) n (%)
same,subjects with at least one AE for which any study drug or study was permanently stopped,single dose 1.25 mg fed,0 n (%)
same,subjects with at least one AE for which any study drug or study was temporarily stopped,single dose 1.25 mg fed,0 n (%)
same,subjects with at least one AE possibly related to any study drug,single dose 1.25 mg fed,1 (14.3%) n (%)
same,"subjects with at least one AE possibly, probably or very likely related to any study drug",single dose 1.25 mg fed,1 (14.3%) n (%)
same,subjects with at least one AE probably related to any study drug,single dose 1.25 mg fed,0 n (%)
same,subjects with at least one AE very likely related to any study drug,single dose 1.25 mg fed,0 n (%)
same,subjects with at least one SAE,single dose 1.25 mg fed,0 n (%)
same,subjects with at least one fatal AE,single dose 1.25 mg fed,0 n (%)
same,subjects with at least one grade 1 AE,single dose 1.25 mg fed,6 (85.7%) n (%)
same,subjects with at least one grade 2 AE,single dose 1.25 mg fed,0 n (%)
same,subjects with at least one grade 3 or 4 AE,single dose 1.25 mg fed,0 n (%)
same,treatment-related AE: Any AE,single dose 1.25 mg fed,1 (14.3%) n (%)
same,treatment-related AE: Chills,single dose 1.25 mg fed,0 n (%)
same,treatment-related AE: Dizziness,single dose 1.25 mg fed,0 n (%)
same,treatment-related AE: General disorders and administration site conditions,single dose 1.25 mg fed,0 n (%)
same,treatment-related AE: Headache,single dose 1.25 mg fed,0 n (%)
same,treatment-related AE: Hypertension,single dose 1.25 mg fed,0 n (%)
same,treatment-related AE: Myalgia,single dose 1.25 mg fed,0 n (%)
same,treatment-related AE: Nervous system disorders,single dose 1.25 mg fed,0 n (%)
same,treatment-related AE: Oropharyngeal pain,single dose 1.25 mg fed,1 (14.3%) n (%)
same,treatment-related AE: Pyrexia,single dose 1.25 mg fed,0 n (%)
same,"treatment-related AE: Respiratory, thoracic and mediastinal disorders",single dose 1.25 mg fed,1 (14.3%) n (%)
same,treatment-related AE: Vascular disorder,single dose 1.25 mg fed,0 n (%)
same,vital signs: Respiratory rate (brpm) Grade 1,single dose 1.25 mg fed,3 (42.9%) n (%)
same,vital signs: Respiratory rate (brpm) Grade 2,single dose 1.25 mg fed,0 n (%)
same,vital signs: SaO2 (%) 90% to <95%,single dose 1.25 mg fed,1 (14.3%) n (%)
same,vital signs: SaO2 (%) 95% to <98%,single dose 1.25 mg fed,3 (42.9%) n (%)
same,vital signs: Standing DBP (mmHg) Grade 1,single dose 1.25 mg fed,1 (14.3%) n (%)
same,vital signs: Standing DBP (mmHg) Grade 2,single dose 1.25 mg fed,2 (28.6%) n (%)
same,vital signs: Standing DBP (mmHg) Grade 3,single dose 1.25 mg fed,1 (14.3%) n (%)
same,vital signs: Standing DBP (mmHg) Low,single dose 1.25 mg fed,0 n (%)
same,vital signs: Standing SBP (mmHg) Grade 1,single dose 1.25 mg fed,3 (42.9%) n (%)
same,vital signs: Standing SBP (mmHg) Low,single dose 1.25 mg fed,0 n (%)
same,vital signs: Standing pulse (bpm) High,single dose 1.25 mg fed,1 (14.3%) n (%)
same,vital signs: Standing pulse (bpm) Low,single dose 1.25 mg fed,0 n (%)
same,vital signs: Supine DBP (mmHg) Grade 1,single dose 1.25 mg fed,1 (14.3%) n (%)
same,vital signs: Supine DBP (mmHg) Low,single dose 1.25 mg fed,0 n (%)
